{"source": "patent US11053241B2", "about": "“TYK2 inhibitors and uses thereof” (Nimbus Lakshmi, Inc., priority 2018, dated 2021)", "data": [{"target": "human TYK2 (JH2domain-pseudokinase) (Homo sapiens (Human), UniProt P29597)", "sequence (P29597 556-888)": "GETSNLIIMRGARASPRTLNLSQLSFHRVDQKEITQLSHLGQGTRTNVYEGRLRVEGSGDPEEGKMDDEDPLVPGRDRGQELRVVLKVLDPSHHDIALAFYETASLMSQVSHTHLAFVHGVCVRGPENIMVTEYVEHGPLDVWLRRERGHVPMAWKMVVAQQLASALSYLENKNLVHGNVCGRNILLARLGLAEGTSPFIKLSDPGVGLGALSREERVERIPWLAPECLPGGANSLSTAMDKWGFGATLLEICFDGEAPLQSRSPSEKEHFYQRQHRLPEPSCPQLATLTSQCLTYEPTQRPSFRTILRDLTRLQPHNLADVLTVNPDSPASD", "test": "TYK2 JH2 Domain Binding Assay (KINOMEscan)", "settings": "11-point 3-fold dilution, top concentration 30,000 nM, duplicate", "description": "Binding constants for compounds of the present invention against the JH2 domain were determined by the following protocol for a KINOMEscan® assay (DiscoveRx). A fusion protein of a partial length construct of human TYK2 (JH2domain-pseudokinase) (amino acids G556 to D888 based on reference sequence NP_003322.3) and the DNA binding domain of NFkB was expressed in transiently transfected HEK293 cells. From these HEK 293 cells, extracts were prepared in M-PER extraction buffer (Pierce) in the presence of Protease Inhibitor Cocktail Complete (Roche) and Phosphatase Inhibitor Cocktail Set II (Merck) per manufacturers' instructions. The TYK2(JH2domain-pseudokinase) fusion protein was labeled with a chimeric double-stranded DNA tag containing the NFkB binding site (5′-GGGAATTCCC-3′) fused to an amplicon for qPCR readout, which was added directly to the expression extract (the final concentration of DNA-tag in the binding reaction is 0.1 nM).\nStreptavidin-coated magnetic beads (Dynal M280) were treated with a biotinylated small molecule ligand for 30 minutes at room temperature to generate affinity resins for the binding assays. The liganded beads were blocked with excess biotin and washed with blocking buffer (SeaBlock (Pierce), 1% BSA, 0.05% Tween 20, 1 mM DTT) to remove unbound ligand and to reduce nonspecific binding.\nThe binding reaction was assembled by combining 16 μl of DNA-tagged kinase extract, 3.8 μl liganded affinity beads, and 0.18 μl test compound (PBS/0.05% Tween 20/10 mM DTT/0.1% BSA/2 μg/ml sonicated salmon sperm DNA). Extracts were used directly in binding assays without any enzyme purification steps at a ≥10,000-fold overall stock dilution (final DNA-tagged enzyme concentration <0.1 nM). Extracts were loaded with DNA-tag and diluted into the binding reaction in a two step process. First extracts were diluted 1:100 in 1× binding buffer (PBS/0.05% Tween 20/10 mM DTT/0.1% BSA/2 μg/ml sonicated salmon sperm DNA) containing 10 nM DNA-tag. This dilution was allowed to equilibrate at room temperature for 15 minutes and then subsequently diluted 1:100 in 1× binding buffer. All reactions were performed in polypropylene 384-well plates. Each was a final volume of 0.02 mL. Assays were incubated with shaking for 1 hour at room temperature. Then the beads were pelleted and washed with wash buffer (1×PBS, 0.05% Tween 20) to remove displaced kinase and test compound. The washed based were re-suspended in elution buffer (1×PBS, 0.05% Tween 20, 0.5 μM non-biotinylated affinity ligand) and incubated at room temperature with shaking for 30 minutes. The kinase concentration in the eluates was measured by qPCR. qPCR reactions were assembled by adding 2.5 μL of kinase eluate to 7.5 μL of qPCR master mix containing 0.15 μM amplicon primers and 0.15 μM amplicon probe. The qPCR protocol consisted of a 10 minute hot start at 95° C., followed by 35 cycles of 95° C. for 15 seconds, 60° C. for 1 minute.\nTest compounds were prepared as 111× stocks in 100% DMSO. Kd values were determined using an 11-point 3-fold compound dilution series with three DMSO control points. All compounds for Kd measurements are distributed by acoustic transfer (non-contact dispensing) in 100% DMSO. The compounds were then diluted directly into the assays such that the final concentration of DMSO was 0.9%. The Kd values were determined using a compound top concentration of 30,000 nM. Kd measurements were performed in duplicate.\nBinding constants (Kds) were calculated with a standard dose-response curve using the Hill equation: […]\nThe Hill Slope was set to −1. Curves were fitted using a non-linear least square fit with the Levenberg-Marquardt algorithm (Levenberg, K., A method for the solution of certain non-linear problems in least squares, Q. Appl. Math. 2, 164-168 (1944)).", "units": {"Kd": "nM"}, "values": [{"smiles": "CNC(=O)c1cnc(NC(=O)C2CC2)c2[nH]c(-c3cccc(-c4cn5c(n4)CCC5)c3F)cc12", "note": "[Compound I-69, 7-(cyclopropanecarboxamido)-2-(3-(6,7-dihydro-5H-pyrrolo[1,2-a]imidazol-2-yl)-2-fluorophenyl)-N-methyl-1H-pyrrolo[2,3-c]pyridine-4-carboxamide]", "Kd": "< 0.2"}, {"smiles": "CCc1csc(-c2cc3c(C(=O)NC)cnc(NC(=O)C4CC4)c3[nH]2)n1", "note": "[Compound I-70, 7-(cyclopropanecarboxamido)-2-(4-ethylthiazol-2-yl)-N-methyl-1H-pyrrolo[2,3-c]pyridine-4-carboxamide]", "Kd": "0.2 to 1"}, {"smiles": "CNC(=O)c1cnc(NC(=O)C2CC2)c2[nH]c(-c3ccc(OC)cc3[C@H]3COCCO3)cc12", "note": "[Compound I-71]", "Kd": "> 10"}, {"smiles": "CNC(=O)c1cnc(NC(=O)C2CC2)c2[nH]c(-c3ccc(OC)cc3[C@@H]3COCCO3)cc12", "note": "[Compound I-72]", "Kd": "> 10"}, {"smiles": "CNC(=O)c1cnc(NC(=O)C2CC2)c2[nH]c(-c3cccc(-c4nc(C)n(C)n4)c3F)cc12", "note": "[Compound I-73, 7-(cyclopropanecarboxamido)-2-(3-(1,5-dimethyl-1H-1,2,4-triazol-3-yl)-2-fluorophenyl)-N-methyl-1H-pyrrolo[2,3-c]pyridine-4-carboxamide]", "Kd": "< 0.2"}, {"smiles": "CNC(=O)c1cnc(NC(=O)C2CC2)c2[nH]c(-c3ccc(-c4nc(C)c(C)n4C)cc3F)cc12", "note": "[Compound I-74, 7-(cyclopropanecarboxamido)-2-(2-fluoro-4-(1,4,5-trimethyl-1H-imidazol-2-yl)phenyl)-N-methyl-1H-pyrrolo[2,3-c]pyridine-4-carboxamide]", "Kd": "< 0.2"}, {"smiles": "CNC(=O)c1cnc(NC(=O)C2CC2)c2[nH]c(-c3ccc(-c4ncc5n4CCCC5)cc3F)cc12", "note": "[Compound I-75, 7-(cyclopropanecarboxamido)-2-(2-fluoro-4-(5,6,7,8-tetrahydroimidazo[1,5-a]pyridin-3-yl)phenyl)-N-methyl-1H-pyrrolo[2,3-c]pyridine-4-carboxamide]", "Kd": "< 0.2"}, {"smiles": "CNC(=O)c1cnc(NC(=O)C2CC2)c2[nH]c(-c3cccc(-c4cn5c(n4)OCCC5)c3F)cc12", "note": "[Compound I-76, 7-(cyclopropanecarboxamido)-2-(3-(6,7-dihydro-5H-imidazo[2,1-b][1,3]oxazin-2-yl)-2-fluorophenyl)-N-methyl-1H-pyrrolo[2,3-c]pyridine-4-carboxamide]", "Kd": "< 0.2"}, {"smiles": "CNC(=O)c1cnc(NC(=O)C2CC2)c2[nH]c(-c3c(F)cc(-c4nccn4C)cc3F)cc12", "note": "[Compound I-77, 7-(cyclopropanecarboxamido)-2-(2,6-difluoro-4-(1-methyl-1H-imidazol-2-yl)phenyl)-N-methyl-1H-pyrrolo[2,3-c]pyridine-4-carboxamide]", "Kd": "< 0.2"}, {"smiles": "CCOc1cc(-c2nccn2C)cc(F)c1-c1cc2c(C(=O)NC)cnc(NC(=O)C3CC3)c2[nH]1", "note": "[Compound I-78, 7-(cyclopropanecarboxamido)-2-(2-ethoxy-6-fluoro-4-(1-methyl-1H-imidazol-2-yl)phenyl)-N-methyl-1H-pyrrolo[2,3-c]pyridine-4-carboxamide]", "Kd": "< 0.2"}, {"smiles": "CNC(=O)c1cnc(NC(=O)C2CC2)c2[nH]c(-c3cccc(-c4cn5c(n4)COCC5)c3F)cc12", "note": "[Compound I-79, 7-(cyclopropanecarboxamido)-2-(3-(5,6-dihydro-8H-imidazo[2,1-c][1,4]oxazin-2-yl)-2-fluorophenyl)-N-methyl-1H-pyrrolo[2,3-c]pyridine-4-carboxamide]", "Kd": "< 0.2"}, {"smiles": "CNC(=O)c1cnc(NC(=O)C2CC2)c2[nH]c(-c3ccn(-c4cnn(C)c4)n3)cc12", "note": "[Compound I-80, 7-(cyclopropanecarboxamido)-N-methyl-2-(1′-methyl-1′H-[1,4′-bipyrazol]-3-yl)-1H-pyrrolo[2,3-c]pyridine-4-carboxamide]", "Kd": "< 0.2"}, {"smiles": "CNC(=O)c1cnc(NC(=O)C2CC2)c2[nH]c(-c3cccc(-c4cnc(C)o4)c3F)cc12", "note": "[Compound I-81, 7-(cyclopropanecarboxamido)-2-(2-fluoro-3-(2-methyloxazol-5-yl)phenyl)-N-methyl-1H-pyrrolo[2,3-c]pyridine-4-carboxamide]", "Kd": "< 0.2"}, {"smiles": "CNC(=O)c1cnc(NC(=O)C2CC2)c2[nH]c(-c3c(F)cc(-n4nccn4)cc3OC3CC3)cc12", "note": "[Compound I-82, 7-(cyclopropanecarboxamido)-2-(2-cyclopropoxy-6-fluoro-4-(2H-1,2,3-triazol-2-yl)phenyl)-N-methyl-1H-pyrrolo[2,3-c]pyridine-4-carboxamide]", "Kd": "> 10"}, {"smiles": "CNC(=O)c1cnc(NC(=O)C2CC2)c2[nH]c(-c3c(F)cc(-c4nccn4C)cc3N3CCC(F)(F)C3)cc12", "note": "[Compound I-83, 7-(cyclopropanecarboxamido)-2-(2-(3,3-difluoropyrrolidin-1-yl)-6-fluoro-4-(1-methyl-1H-imidazol-2-yl)phenyl)-N-methyl-1H-pyrrolo[2,3-c]pyridine-4-carboxamide]", "Kd": "< 0.2"}, {"smiles": "CNC(=O)c1cnc(NC(=O)C2CC2)c2[nH]c(-c3cccc(-c4cn5c(n4)C(C)(C)OCC5)c3F)cc12", "note": "[Compound I-84, 7-(cyclopropanecarboxamido)-2-(3-(8,8-dimethyl-5,6-dihydro-8H-imidazo[2,1-c][1,4]oxazin-2-yl)-2-fluorophenyl)-N-methyl-1H-pyrrolo[2,3-c]pyridine-4-carboxamide]", "Kd": "< 0.2"}, {"smiles": "CNC(=O)c1cnc(NC(=O)C2CC2)c2[nH]c(-c3cccc(OC4CCOCC4)c3F)cc12", "note": "[Compound I-85, 7-(cyclopropanecarboxamido)-2-(2-fluoro-3-((tetrahydro-2H-pyran-4-yl)oxy)phenyl)-N-methyl-1H-pyrrolo[2,3-c]pyridine-4-carboxamide]", "Kd": "0.2 to 1"}, {"smiles": "CNC(=O)c1cnc(NC(=O)C2CC2)c2[nH]c(-c3c(F)cc(-c4nccn4C)cc3N3CCOCC3)cc12", "note": "[Compound I-86, 7-(cyclopropanecarboxamido)-2-(2-fluoro-4-(1-methyl-1H-imidazol-2-yl)-6-morpholinophenyl)-N-methyl-1H-pyrrolo[2,3-c]pyridine-4-carboxamide]", "Kd": "< 0.2"}, {"smiles": "CNC(=O)c1cnc(NC(=O)C2CC2)c2[nH]c(-c3cccc(C4=NC(C)(C)CO4)c3F)cc12", "note": "[Compound I-87, 7-(cyclopropanecarboxamido)-2-(3-(4,4-dimethyl-4,5-dihydrooxazol-2-yl)-2-fluorophenyl)-N-methyl-1H-pyrrolo[2,3-c]pyridine-4-carboxamide]", "Kd": "< 0.2"}, {"smiles": "CNC(=O)c1cnc(NC(=O)C2CC2)c2[nH]c(-c3ccc(OC[C@@H]4CCCO4)cc3F)cc12", "note": "[Compound I-88, (S)-7-(cyclopropanecarboxamido)-2-(2-fluoro-4-((tetrahydrofuran-2-yl)methoxy)phenyl)-N-methyl-1H-pyrrolo[2,3-c]pyridine-4-carboxamide]", "Kd": "< 0.2"}, {"smiles": "CNC(=O)c1cnc(NC(=O)C2CC2)c2[nH]c(-c3ccc(C4COCCO4)cc3OC)cc12", "note": "(centres unmarked) [Compound I-89, 2-(4-(1,4-dioxan-2-yl)-2-methoxyphenyl)-7-(cyclopropanecarboxamido)-N-methyl-1H-pyrrolo[2,3-c]pyridine-4-carboxamide]", "Kd": "0.2 to 1"}, {"smiles": "CNC(=O)c1cnc(NC(=O)C2CC2)c2[nH]c(-c3c(F)cc(-c4nccn4C)cc3N3CC[C@@H](OC)C3)cc12", "note": "[Compound I-90, (R)-7-(cyclopropanecarboxamido)-2-(2-fluoro-6-(3-methoxypyrrolidin-1-yl)-4-(1-methyl-1H-imidazol-2-yl)phenyl)-N-methyl-1H-pyrrolo[2,3-c]pyridine-4-carboxamide]", "Kd": "< 0.2"}, {"smiles": "CNC(=O)c1cnc(NC(=O)C2CC2)c2[nH]c(-c3cccc([C@H]4C[C@@H](OC)C4)c3F)cc12", "note": "[Compound I-91, 7-(cyclopropanecarboxamido)-2-(2-fluoro-3-((1s,3s)-3-methoxycyclobutyl)phenyl)-N-methyl-1H-pyrrolo[2,3-c]pyridine-4-carboxamide]", "Kd": "< 0.2"}]}]}
